According to patent US20250213589A1, “METHODS AND COMPOSITIONS FOR TE[…]” (priority 2023, published 2025):

Columns and labels:
[1] = FIG. 1: testosterone concentration in a patient at various time points after 200 mg of testosterone; details: after administration; FIG. 1, 200 mg of testosterone
Description: FIG. 1 is a phase diagram of the testosterone concentration in a patient at various time points after being administered 200 mg of testosterone.
Hormone levels were measured after co-administration of 200 mg of testosterone and 6.25 mg of enclomiphene for 30 days. Testosterone concentration was measured at +4 hours and +12 hours after administration. […] Testosterone concentration was measured at +4 hours after administration to capture the peak testosterone concentration (cMax) and +12 hours after administration to capture the trough testosterone concentration (cMin) to determine if endogenous testosterone suppression is prevented with the enclomiphene.

[2] = system: endogenous testosterone, LH, and FSH production; experiment: Example 3: hormone levels after administration of enclomiphene (pre-TRT); type: in vivo, human; details: after 6.25 mg of enclomiphene; n=1
Description: This example investigated the effects of administering a SERM (enclomiphene) on endogenous testosterone, LH, and FSH production.
Hormone levels were measured after administration of 6.25 mg of enclomiphene (see Table 3, n=1).

Compound: C[C@]12CC[C@H]3[C@@H](CCC4=CC(=O)CC[C@@]43C)[C@@H]1CC[C@@H]2O [Testosterone, testosterone]
- time of testosterone peak [1]: 3 to 5 h
- time until testosterone is out of the system [1]: ≤ 12 h

Compound: CCN(CC)CCOc1ccc(/C(=C(/Cl)c2ccccc2)c2ccccc2)cc1 [enclomiphene]
- Calculated free testosterone levels [2]: 197 pg/mL
- Sex Hormone Binding Globulin [2]: 20 nmol/L
- Testosterone, Bioavailable [2]: 322.9 ng/dL
- Testosterone, Free [2]: 153.7 pg/mL
- Testosterone, Total, MS [2]: 724 ng/dL
- increase of calculated free testosterone from baseline (114 pg/mL) [2]: 73%
